ChEMBL document CHEMBL4706528, “The design, synthesis and anti-tumor mechanism study of new androgen receptor degrader” (Eur J Med Chem, 2020)
Activity calls are given as the source filed them. No cut-off for these calls is given here.

Experiments:
MCF7 = assay: Antiproliferative activity against androgen-positive human MCF7 cells assessed as cell growth inhibition measured after 72 hrs by SRB assay; format: functional, cell-based; conditions: MCF7, 72 h
LNCaP [1] = assay: Antiproliferative activity against androgen-positive human LNCaP cells assessed as cell growth inhibition measured after 72 hrs by SRB assay; format: functional, cell-based
[2] = target: T1, Androgen receptor (Homo sapiens) (UniProt P10275); assay: Binding affinity to androgen receptor LBD (unknown origin) at 10 uM incubated for 4 hrs under dark by fluorescence polarization based binding assay relative to R1881
T1 sequence (whole entry): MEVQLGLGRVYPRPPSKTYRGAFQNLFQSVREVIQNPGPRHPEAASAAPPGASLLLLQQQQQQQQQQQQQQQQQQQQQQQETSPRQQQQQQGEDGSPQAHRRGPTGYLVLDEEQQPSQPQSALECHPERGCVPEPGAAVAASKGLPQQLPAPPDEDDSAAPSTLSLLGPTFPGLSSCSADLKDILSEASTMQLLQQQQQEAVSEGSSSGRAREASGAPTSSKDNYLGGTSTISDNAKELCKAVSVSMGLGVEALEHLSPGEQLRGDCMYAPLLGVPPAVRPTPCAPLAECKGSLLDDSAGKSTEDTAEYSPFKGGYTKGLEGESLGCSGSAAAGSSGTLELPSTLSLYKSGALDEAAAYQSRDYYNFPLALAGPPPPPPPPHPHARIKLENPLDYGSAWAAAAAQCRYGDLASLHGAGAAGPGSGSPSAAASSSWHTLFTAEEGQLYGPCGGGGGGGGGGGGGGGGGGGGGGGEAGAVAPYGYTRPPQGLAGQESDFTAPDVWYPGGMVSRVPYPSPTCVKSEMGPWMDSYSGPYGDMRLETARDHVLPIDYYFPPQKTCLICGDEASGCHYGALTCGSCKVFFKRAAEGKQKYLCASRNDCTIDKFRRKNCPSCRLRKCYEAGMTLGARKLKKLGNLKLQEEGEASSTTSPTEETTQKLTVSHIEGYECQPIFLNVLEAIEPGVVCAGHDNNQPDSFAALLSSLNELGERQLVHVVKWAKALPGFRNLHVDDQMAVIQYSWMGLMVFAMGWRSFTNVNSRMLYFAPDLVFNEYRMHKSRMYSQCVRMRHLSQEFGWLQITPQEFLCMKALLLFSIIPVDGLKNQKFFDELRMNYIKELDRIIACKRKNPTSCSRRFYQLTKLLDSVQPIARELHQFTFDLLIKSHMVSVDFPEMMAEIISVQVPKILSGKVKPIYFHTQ

LNCaP C4-2B = assay: Antiproliferative activity against androgen-sensitive positive human LNCaP C4-2B cells assessed as cell growth inhibition measured after 72 hrs by SRB assay; format: functional, cell-based
PC-3 = assay: Antiproliferative activity against androgen-negative human PC-3 cells assessed as cell growth inhibition measured after 72 hrs by SRB assay; format: functional, cell-based; conditions: PC-3, 72 h
[3] = Cytotoxicity against androgen-negative human WPMY-1 cells assessed as cell growth inhibition measured after 72 hrs by SRB assay; format: cell-based; conditions: WPMY-1, 72 h
SGC-7901 = assay: Antiproliferative activity against androgen-positive human SGC-7901 cells assessed as cell growth inhibition measured after 72 hrs by SRB assay; format: functional, cell-based; conditions: SGC-7901, 72 h
GES1 = assay: Cytotoxicity against androgen-negative human GES1 cells assessed as cell growth inhibition measured after 72 hrs by SRB assay; format: cell-based; conditions: GES1, 72 h
LNCaP [4] = assay: Induction of cell cycle arrest in human LNCaP cells assessed as accumulation at G1 phase at 1 micromol/L after 24 hrs by RNase A/PI-staining based flow cytometric analysis (reference value: 47.99%); format: functional; conditions: dose 1 µmol/L, at 1 µM
LNCaP [5] = assay: Induction of cell cycle arrest in human LNCaP cells assessed as accumulation at S phase at 1 micromol/L after 24 hrs by RNase A/PI-staining based flow cytometric analysis (reference value: 20.69%); format: functional; conditions: dose 1 µmol/L, at 1 µM
LNCaP [6] = assay: Induction of cell cycle arrest in human LNCaP cells assessed as accumulation at G2 phase at 2 micromol/L after 24 hrs by RNase A/PI-staining based flow cytometric analysis (reference value: 20.87%); format: functional; conditions: dose 2 µmol/L, at 2 µM
LNCaP [7] = assay: Induction of cell cycle arrest in human LNCaP cells assessed as accumulation at G1 phase at 10 micromol/L after 24 hrs by RNase A/PI-staining based flow cytometric analysis (reference value: 47.99%); format: functional; conditions: dose 10 µmol/L, at 10 µM
LNCaP [8] = assay: Induction of cell cycle arrest in human LNCaP cells assessed as accumulation at S phase at 10 micromol/L after 24 hrs by RNase A/PI-staining based flow cytometric analysis (reference value: 20.69%); format: functional; conditions: dose 10 µmol/L, at 10 µM
LNCaP [9] = assay: Induction of apoptosis in human LNCaP cells assessed as early apoptotic cells level at 1 micromol/L incubated for 24 hrs by Annexin V/PI staining staining based flow cytometry (reference value: 2.09%); format: functional; conditions: dose 1 µmol/L, at 1 µM
LNCaP [10] = assay: Induction of apoptosis in human LNCaP cells assessed as late cells level at 2 micromol/L incubated for 24 hrs by Annexin V/PI staining staining based flow cytometry (reference value: 0.940%); format: functional; conditions: dose 2 µmol/L, at 2 µM
LNCaP [11] = assay: Induction of apoptosis in human LNCaP cells assessed as early apoptotic cells level at 2 micromol/L incubated for 24 hrs by Annexin V/PI staining staining based flow cytometry (reference value: 2.09%); format: functional; conditions: dose 2 µmol/L, at 2 µM
LNCaP [12] = assay: Induction of apoptosis in human LNCaP cells assessed as viable cells level at 10 micromol/L incubated for 24 hrs by Annexin V/PI staining staining based flow cytometry (reference value: 96.3%); format: functional; conditions: dose 10 µmol/L, at 10 µM
[13] = target: T1, Androgen receptor (Homo sapiens); assay: Selective androgen receptor degradation activity at androgen receptor in human LNCaP cells assessed as down regulation of protein level at 1 uM after 24 hrs by Western blot analysis; format: cell-based
[14] = target: Transmembrane protease serine 2 (Homo sapiens) (UniProt O15393); assay: Induction of downregulation of TMPRSS2 (unknown orgin) human LNCaP cells at 1 uM after 24 hrs by Western blot analysis
[15] = target: T1, Androgen receptor (Homo sapiens); assay: Selective androgen receptor degradation activity at androgen receptor in human LNCaP cells assessed as down regulation of protein level at 2 uM after 24 hrs by Western blot analysis; format: cell-based
[16] = target: Transmembrane protease serine 2 (Homo sapiens) (UniProt O15393); assay: Induction of downregulation of TMPRSS2 (unknown orgin) human LNCaP cells at 2 uM after 24 hrs by Western blot analysis
[17] = target: Transmembrane protease serine 2 (Homo sapiens) (UniProt O15393); assay: Induction of downregulation of TMPRSS2 (unknown orgin) human LNCaP cells at 10 uM after 24 hrs by Western blot analysis
[18] = target: T1, Androgen receptor (Homo sapiens); assay: Selective androgen receptor degradation activity at androgen receptor in human LNCaP cells assessed as down regulation of protein level at 10 uM after 72 hrs by Western blot analysis; format: cell-based
[19] = target: T1, Androgen receptor (Homo sapiens); assay: Selective androgen receptor degradation activity at androgen receptor in human LNCaP cells assessed as down regulation of protein level at 10 uM after 24 hrs in presence of MG132 by Western blot analysis; format: cell-based
[20] = target: Prostate-specific antigen (Homo sapiens) (UniProt P07288); assay: Induction of downregulation of PSA (unknown orgin) human LNCaP cells at 10 uM after 24 hrs by Western blot analysis
Sequence of Prostate-specific antigen (Homo sapiens) (P07288 whole entry, looked up): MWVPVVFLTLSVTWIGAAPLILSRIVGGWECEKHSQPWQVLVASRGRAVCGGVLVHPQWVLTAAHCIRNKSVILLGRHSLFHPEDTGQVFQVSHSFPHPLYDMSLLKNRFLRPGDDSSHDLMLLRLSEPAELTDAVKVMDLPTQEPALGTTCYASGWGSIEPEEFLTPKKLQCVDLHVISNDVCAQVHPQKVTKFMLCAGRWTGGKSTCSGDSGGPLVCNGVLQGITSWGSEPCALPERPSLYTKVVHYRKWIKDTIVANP

Sequence of Transmembrane protease serine 2 (Homo sapiens) (O15393 1-255 limits assumed): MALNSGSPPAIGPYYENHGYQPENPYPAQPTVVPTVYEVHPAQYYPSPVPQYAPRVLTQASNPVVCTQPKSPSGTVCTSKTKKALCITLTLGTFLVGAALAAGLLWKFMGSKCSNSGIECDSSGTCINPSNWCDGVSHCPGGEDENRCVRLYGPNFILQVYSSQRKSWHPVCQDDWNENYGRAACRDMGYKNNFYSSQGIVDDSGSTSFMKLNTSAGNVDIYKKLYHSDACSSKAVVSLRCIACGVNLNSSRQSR
Sequence of Transmembrane protease serine 2 (Homo sapiens) (O15393 256-492 limits assumed): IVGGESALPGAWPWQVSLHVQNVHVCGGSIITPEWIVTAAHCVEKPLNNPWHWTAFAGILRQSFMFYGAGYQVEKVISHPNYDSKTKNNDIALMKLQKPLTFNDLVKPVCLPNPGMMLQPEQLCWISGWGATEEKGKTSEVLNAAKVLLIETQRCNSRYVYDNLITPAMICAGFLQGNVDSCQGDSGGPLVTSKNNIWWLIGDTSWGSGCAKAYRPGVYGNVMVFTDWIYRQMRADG

IC50 (MCF7): 50.5 µM
IC50 (LNCaP [1]): 1.75 µM
Activity [2]: 85.3%
IC50 (LNCaP C4-2B): 16.6 µM
IC50 (PC-3): > 80 µM
IC50 (SGC-7901): 6.93 µM
Activity [13]: Active
Activity [14]: Active
Activity [15]: Active
Activity [16]: Active
Activity [17]: Active
Activity [18]: Active
Activity [19]: Active
Activity [20]: Active
Structure (SMILES): CC1(C)C(=O)N(c2ccc(C#N)c(C(F)(F)F)c2)C(=S)N1CCCCCn1cc(COCCOCCOC(=O)CC23CC4CC(CC(C4)C2)C3)nn1
IC50 [3]: > 80 µM
IC50 (GES1): > 80 µM
Activity (LNCaP [4]): 59.3%
Activity (LNCaP [5]): 19.84%
Activity (LNCaP [6]): 8.9%
Activity (LNCaP [7]): 74.56%
Activity (LNCaP [8]): 16.11%
Activity (LNCaP [9]): 1.56%
Activity (LNCaP [10]): 1.59%
Activity (LNCaP [11]): 1.56%
Activity (LNCaP [12]): 79%
